Paper PMC5756575, “In Vitro Biotransformation, Safety, and Chemopreventive Action of Novel 8-Methoxy-Purine-2,6-Dione Derivatives” (Applied Biochemistry and Biotechnology, 2017)
Where two headings read alike, the source gives them in different places.

How the values were obtained:
[1] = system: Cunninghamella echinulata NRRL 1384; experiment: Cunninghamella biotransformation assay, C. echinulata; assay type: in vitro ADME; settings: 7-day incubation; for % of compound/metabolite in C. echinulata: 0.5 mg/mL, LC-MS/MS; for % of tested (parental) compound metabolized at the end of experiment: C. echinulata
Experimental: Three different strains of Cunninghamella were used: Cunninghamella echinulata NRRL 1384, Cunninghamella blakesleeana 1908 DMS, and Cunninghamella elegans 1906 DMS. The first was provided by Dr. A.J. Carnell (University of Liverpool, UK), whereas the two remaining were purchased from Deutsche Sammlung von Mikroorganismen und Zellkulturen GmbH (DMSZ, Braunschweig, Germany).
Cunninghamella strains were cultivated on solid potato dextrose agar (PDA) plates at 28 °C. After 4 days, a liquid fermentation basal medium was prepared by the addition of 6 g of D-glucose, 1.5 g of NaCl, 1.5 g of yeast extract from Saccharomyces cerevisiae, and 1.5 g of K2HPO4 to 300 mL of distilled water. Aliquots of 24.5 mL of medium were inoculated with 300 μL of suspension of fungal spores obtained after wetting colonies in PDA. The fungi were incubated with shaking until the formation of spherical clumps.
Compounds 2–4 were evaluated in this experiment. Once microorganisms formed spherical clumps in the preliminary incubation, the corresponding tested compound was added to the broth and the mixture was incubated for 7 days. Two control experiments were also performed, in the absence of compound and fungus, respectively. Biotransformation progress was monitored by TLC and by liquid chromatography electrospray ionization-tandem mass spectrometry (LC-MS/MS). Monitoring was performed at four different incubation times: 30 min, 3 days, 5 days, and 7 days.
To analyze metabolites in LC-MS/MS, an aliquot of 500 μL of filtered sample was taken and extracted with 500 μL of dichloromethane. The organic fraction was dried with sodium sulfate, filtered, and evaporated. The obtained residue was analyzed in LC-MS/MS. At the end of experiment, all the remaining medium was extracted with 25 mL of dichloromethane after separating the fungal clumps by filtration over cellulose filters.
(§1) Agilent 1100 HPLC system (Agilent Technologies, Waldbronn, Germany) equipped with a Xbridge™ C18 analytical column (2.1 × 30 mm, […]; Waters, Dublin, Ireland) was used in the chromatographic separation of LC-MS/MS analysis. An elution gradient of acetonitrile and water, with 0.1% of formic acid, was used as a mobile phase. MS spectra were taken at Applied Biosystems MDS Sciex API 200 triple quadrupole mass analyzer (Concord, Ontario, Canada) with an electrospray ionization (ESI) interface between HPLC and MS.

[2] = Microsomal stability assay; assay type: in vitro ADME, rat; settings: pH 7.4, rat liver microsomes, 20 μM, 0.4 mg/mL protein
Experimental: (§2) Compounds 1 and 3 were studied in a biotransformation assay using rat liver microsomes following procedures described previously. The reagents used in this assay were levallorphan (internal standard) and NADPH-regenerating system, which contained phosphate buffer (pH 7.4), NADP^+, glucose-6-phosphate, and glucose-6-phosphate dehydrogenase. The final protein concentration in the assay was 0.4 mg/mL. Compounds 1 and 3 were tested at a final concentration of 20 μM.
(§3) The amount of a parental compound remaining in a solution after biotransformation was monitored using LC-MS/MS as described previously in “Cunninghamella Biotransformation Assay.” Graphs representing ln of percentage of parent compound remaining versus incubation time were drawn to calculate in vitro half-time (t1/2) from the slope of linear regression. To obtain intrinsic clearance (Clint) of a tested compound in rat liver microsomal assay, t1/2 previously calculated was substituted at the equation Clint = [(Vmic/Pmic) × 0.693/t1/2], being Vmic and Pmic the volume of incubation in microliters and the amount of incubated protein in milligrams, respectively.
as §1

rat liver microsomes = experiment: Microsomal stability assay; assay type: in vitro ADME; settings: 97.88 versus 302.00 μL/min/mg
Experimental: as §2, §3, §1

Vibrio harveyi BB7M = settings: 40 ng/mL; for Number of revertants per plate, Mean ± SD: mutagenicity
Experimental: (§4) From them, 0.2 mM working solutions were prepared by dilution with water. […] Working solutions were prepared by 1:100 dilution of stock solution in water, and final compound concentration assayed was 40 ng/mL.
(§5) Four Vibrio harveyi strains were used in this study: a wild-type BB7 (naturally found in the Baltic Sea) and three genetically modified strains, namely BB7M (obtained by the introduction of pAB1273 plasmid containing the genes mucA and mucB to enhance the error-prone DNA repair), BB7X (hypersensitive to UV radiation after genetic modification with Tn5TpMCS), and BB7XM (containing the two abovementioned modifications). These strains were kindly provided by Prof. G. Węgrzyn (Department of Molecular Biology, University of Gdańsk, Poland).
(§6) It causes point mutations at the genome as it induces G:C → A:T transitions in Vibrio harveyi strains and in other bacteria such as Escherichia coli and S. typhimurium. […] Next, its working solution was prepared in sterile water, being 40 ng/mL its final concentration.
(§7) To perform the V. harveyi mutagenicity test, 10 μL of a working solution of the tested compound (100 μg/mL) were added to V. harveyi bacterial culture (OD600 = 0.1) in NaCl-containing BOSS liquid medium, being 40 ng/mL the final concentration of the tested compound. […] Then, an inoculum containing 5 × 10^6 cells was added to solid BOSS agar plate supplemented with neomycin sulfate at a final concentration of 100 μg/mL. Samples were left incubating 48 h at 30 °C, and revertant colonies were counted manually.

Vibrio harveyi BB7X [3] = settings: 40 ng/mL; for MI (mutagenicity index): mutagenic if MI above 2.0; for Number of revertants per plate, Mean ± SD: mutagenicity
Experimental: as §4, §5, §6, §7

Vibrio harveyi BB7 [4] = settings: BB7, 40 ng/mL; for MI (mutagenicity index): mutagenic if MI above 2.0; for Number of revertants per plate, Mean ± SD: mutagenicity
Experimental: as §4, §5, §6, §7

Vibrio harveyi BB7 [5] = experiment: Vibrio harveyi antimutagenicity assay against NQNO, BB7; assay type: cell-based; settings: for % inhibition of NQNO mutagenicity / Number of revertants per plate, Mean ± SD: BB7, compound 40 ng/mL + NQNO 40 ng/mL; for Number of revertants per plate, Mean ± SD: antimutagenicity, NQNO line = NQNO as a single compound; for chemopreventive (antimutagenic) effect, class: wild BB7 strain, against NQNO
Source text: as §5, §6
(§8) Procedure followed in the V. harveyi antimutagenicity assay was similar to the mutagenicity method described before. […] The results were expressed as the inhibition percentage of mutagenic effect, which was calculated with the formula: 100 − [(R 1/R 2) × 100], where R 1 is the number of revertants per plate in the presence of both mutagen and tested substance, and R 2 is the number of revertants per plate in the presence of mutagen. […] S. typhimurium antimutagenicity assay was based on similar assumptions as the V. harveyi antimutagenicity test. In this case, the chemopreventive activity was determined at two concentrations of a tested compounds and a standard mutagen, i.e., 40 and 500 ng/mL.

Vibrio harveyi BB7X [6] = experiment: Vibrio harveyi antimutagenicity assay against NQNO, BB7X; assay type: cell-based; settings: compound 40 ng/mL + NQNO 40 ng/mL; for Number of revertants per plate, Mean ± SD: antimutagenicity, NQNO line = NQNO as a single compound
Source text: as §5, §6, §8

Vibrio harveyi BB7XM = assay type: cell-based; settings: compound 40 ng/mL + NQNO 40 ng/mL; for Number of revertants per plate, Mean ± SD: antimutagenicity, NQNO line = NQNO as a single compound
Source text: as §5, §6, §8

SMILES	% of compound/metabolite in C. echinulata [1] [%]	% of tested (parental) compound metabolized at the end of experiment [1] [%]	half-life at 20 μM ([2]; read-out: in vitro half-time (t1/2)) [min]	microsomal CLint at 20 μM ([2]; read-out: intrinsic clearance (Clint)) [µL/min/mg]	Clint, fold lower than imipramine (rat liver microsomes) [fold]	MI (mutagenicity index) (Vibrio harveyi BB7M; mutagenic if MI above 2.0)	Number of revertants per plate, Mean ± SD (Vibrio harveyi BB7M)	MI (mutagenicity index) (Vibrio harveyi BB7X [3])	Number of revertants per plate, Mean ± SD (Vibrio harveyi BB7X [3])	MI (mutagenicity index) (Vibrio harveyi BB7 [4])	Number of revertants per plate, Mean ± SD (Vibrio harveyi BB7 [4])	% inhibition of NQNO mutagenicity (Vibrio harveyi BB7 [5]) [%]	Number of revertants per plate, Mean ± SD (Vibrio harveyi BB7 [5])	chemopreventive (antimutagenic) effect, class (Vibrio harveyi BB7 [5])	Number of revertants per plate, Mean ± SD (Vibrio harveyi BB7X [6])	% inhibition of NQNO mutagenicity (Vibrio harveyi BB7X [6]) [%]	Number of revertants per plate, Mean ± SD (Vibrio harveyi BB7XM)	% inhibition of NQNO mutagenicity (Vibrio harveyi BB7XM) [%]
COc1nc2c(c(=O)n(C)c(=O)n2C)n1CCCC(=O)NCc1ccccc1 [Compound 3, N-benzyl-4-(8-methoxy-1,3-dimethyl-2,6-dioxo-purin-7-yl)butanamide]	92.4	7.6	17.7	97.9	3.09	1.3	35 ± 5	1.6	35 ± 4	1.4	18 ± 6	29	38 ± 9	moderate or a close to moderate	45 ± 9	58	65 ± 7	15
COc1nc2c(c(=O)n(C)c(=O)n2C)n1CCCC(=O)N1CCN(c2ccccc2)CC1 [Compound 4, 8-methoxy-1,3-dimethyl-7-[4-oxo-4-(4-phenylpiperazin-1-yl)butyl]purine-2,6-dione]	12.4	87.6	–	–	–	–	42 ± 11	1.2	27 ± 7	0.8	10 ± 4	53	26 ± 6	strong (higher than 40%)	47 ± 10	56	70 ± 7	9
